Paper PMC11978698, “Differential uptake of arginine derivatives by the human heteromeric amino acid transporter b^0,+AT-rBAT (SLC7A9-SLC3A1)” (Naunyn-Schmiedeberg's Archives of Pharmacology, 2024)
Each block holds one molecule with its values, some of them ahead of it.

What was measured:
[1] = biological target: T1, b0,+AT (SLC7A9), in the heteromeric transporter b0,+AT-rBAT (Homo sapiens, UniProt P82251); assay: cell-based
T1 sequence (P82251 1-487): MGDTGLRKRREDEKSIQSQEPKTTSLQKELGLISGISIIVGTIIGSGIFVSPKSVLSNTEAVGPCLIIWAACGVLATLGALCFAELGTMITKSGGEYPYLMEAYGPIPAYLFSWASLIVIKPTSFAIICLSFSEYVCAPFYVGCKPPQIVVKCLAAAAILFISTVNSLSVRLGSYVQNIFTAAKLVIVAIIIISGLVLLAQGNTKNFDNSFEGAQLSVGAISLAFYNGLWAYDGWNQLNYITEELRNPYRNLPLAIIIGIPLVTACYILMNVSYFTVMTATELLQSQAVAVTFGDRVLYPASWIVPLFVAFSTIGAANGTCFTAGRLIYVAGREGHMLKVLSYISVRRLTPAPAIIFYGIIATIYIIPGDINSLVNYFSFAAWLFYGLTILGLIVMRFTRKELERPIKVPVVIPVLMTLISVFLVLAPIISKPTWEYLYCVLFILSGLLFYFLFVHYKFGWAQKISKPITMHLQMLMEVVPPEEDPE
T1 sequence (Q07837 1-685 partner): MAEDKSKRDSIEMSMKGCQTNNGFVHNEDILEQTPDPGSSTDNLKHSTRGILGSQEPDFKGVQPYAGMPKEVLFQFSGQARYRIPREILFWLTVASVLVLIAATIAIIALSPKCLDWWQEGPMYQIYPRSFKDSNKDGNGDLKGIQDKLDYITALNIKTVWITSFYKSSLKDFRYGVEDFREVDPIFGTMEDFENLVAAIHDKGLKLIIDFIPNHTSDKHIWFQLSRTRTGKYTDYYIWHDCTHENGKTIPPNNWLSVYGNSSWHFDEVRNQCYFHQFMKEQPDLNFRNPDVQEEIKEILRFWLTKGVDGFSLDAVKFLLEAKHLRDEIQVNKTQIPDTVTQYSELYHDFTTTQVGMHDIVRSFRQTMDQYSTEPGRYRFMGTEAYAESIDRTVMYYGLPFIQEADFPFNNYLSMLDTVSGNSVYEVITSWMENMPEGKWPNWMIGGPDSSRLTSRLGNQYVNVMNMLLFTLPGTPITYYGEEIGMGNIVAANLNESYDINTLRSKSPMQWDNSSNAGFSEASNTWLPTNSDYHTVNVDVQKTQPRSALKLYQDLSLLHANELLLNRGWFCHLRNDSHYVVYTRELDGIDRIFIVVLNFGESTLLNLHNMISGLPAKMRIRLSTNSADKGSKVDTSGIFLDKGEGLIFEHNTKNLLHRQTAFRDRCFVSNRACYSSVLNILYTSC

[2] = biological target: T1, b0,+AT (SLC7A9), in the heteromeric transporter b0,+AT-rBAT; assay: inhibition of radiolabeled L-arginine ([…]), L-homoarginine and ADMA uptake by […] L-cystine in double-transfected MDCK cells; assay type: cell-based; parameters: human b0,+AT (NM_001126335) co-expressed with human rBAT (NM_000341.3) in MDCKII cells; with rBAT (SLC3A1)
[3] = biological target: T1, b0,+AT (SLC7A9), in the heteromeric transporter b0,+AT-rBAT; details: read-out: radiolabeled uptake in double-transfected MDCK cells, not saturated up to 4000 μ
[4] = substrate: N=C(N)NCCCC[C@H](N)C(=O)O; assay: cells, lysate or membranes

Molecule: N=C(N)NCCC[C@H](N)C(=O)O [L-arginine]
IC50 [1]: 116 µM

Molecule: N[C@@H](CSSC[C@H](N)C(=O)O)C(=O)O [L-cystine]
inhibition of radiolabeled L-arginine (100 μM), L-homoarginine and ADMA uptake b [2]: the uptake of L-homoarginine (Fig. 9c) and ADMA (Fig. 9d) was significantly inhibited at the low tested concentrations

Km [3]: > 4000 µM
Molecule: CN(C)C(=N)NCCC[C@H](N)C(=O)O [asymmetric dimethylarginine]

B1: b0,+AT (SLC7A9), in the heteromeric transporter b0,+AT-rBAT (Homo sapiens) (protein)
chain: T1 sequence (P82251 1-487)
Km [4]: 197.0 µM
